The numbers were not newly measured in patent publication US20120178757A1, “Method For The Prevention Of Cancer Metastasis” (NOTTINGHAM UNIVERSITY HOSPITALS NHS TRUST, priority 2010, published 2012), which cites them from elsewhere.

The subject of data set [1] is human pancreatic cell lines.
In data set [2] the test system is carcinoma cell lines of colon, prostate, ovary and breast. The conditions noted are these: adrenoceptor-mediated, norepinephrine-induced migration of cancer cells.
The subject of data set [3] is prostate cancer. The conditions noted are these: coincidental treatment for hypertension or benign prostate hyperplasia.
In data set [4] the test system is breast cancer cells. The conditions noted are these: in vitro breast cancer cells.

“Also recorded” adds a separate entry of the source.

`CC(C)NCC(O)COc1cccc2ccccc12` (stereo not drawn) [propranolol, Propranolol]: the proliferation entry in data set [1] was “can reduce proliferation”. For the same compound, the cell migration result in data set [2] is recorded as “can be inhibited; also recorded: is inhibited”.

`COc1cc2nc(N3CCN(C(=O)C4CCCO4)CC3)nc(N)c2cc1OC` (stereo not drawn) [terazosin, Terazosin]: in data set [3], the “incidence of prostate cancer” value was “significantly lowered the incidence of prostate cancer”.

As for `COc1cc2nc(N3CCN(C(=O)C4COc5ccccc5O4)CC3)nc(N)c2cc1OC` (stereo not drawn) [doxazosin, Doxazosin], in data set [3], the “incidence of prostate cancer” value is recorded as “significantly lowered the incidence of prostate cancer”. Moreover, in data set [4], the apoptosis entry is given as “induce apoptosis” and the proliferation result is “inhibit proliferation”.
